Common to all, as to parameters: species or system human
The subject of one assay is E-selectin. The assay is described as follows: ELISA: inhibition of E-selectin-IgG chimera binding to 2,3 sLe^x glycolipid. Conditions: for IC50: inhibition of binding to 2,3 sLex glycolipid. From the text: (§1) An ELISA assay is preferably used that employs recombinant fusion proteins composed of extracellular portions of the human selectins joined to human immunoglobulin heavy chain CH3, CH2, and hinge regions. See, for example, Walz et al., Science (1990) 250:1132; Aruffo et al., Cell (1991) 67:35; Aruffo et al., Proc. Natl. Acad. Sci. USA. (1992) 89:2292. The assay is well known in the art, and generally consists of the following three steps:
(§2) I. 2,3 sLe^x glycolipid (25 picomole/well) was transferred into microtiter wells as solutions and then evaporated off. Excess, which remained unattached, was washed off with water. The wells were then blocked with 5% BSA at room temperature for an hour and then washed with PBS containing 1 mM calcium.
(§3) II. Preparation of "multivalent" receptor of the Selectin-lgG chimera was carried out by combining the respective chimera (1 μg/mL) with biotin labelled goat F(ab')2 anti-human IgG (Fc specific) and streptavidin-alkaline phosphatase diluted 1:1000 in 1% BSA-PBS (1 mM calcium) and incubating at 37° C. for 15 min. This allowed the soluble multivalent receptor complex to form. III. Potential inhibitors such as the compounds of formula I or II were allowed to react with the soluble receptor at 37° C. for 45 min. This test assumes that optimal binding, between the soluble phase receptor complex and the inhibitor (non natural ligand), would have occurred within this time frame. This solution was then placed in the microtiter wells that were prepared in step I. The plate was incubated at 37° C. for 45 minutes to allow the soluble receptor to bind to its natural ligand. In the presence of a strong inhibitor only a few receptors should be free to bind to the microtiter plate coated with the natural ligand.
(§4) The positive control is the signal produced by the soluble receptor when it is allowed to react with 2,3 sLe^x glycolipid in the microtiter wells in the absence of any inhibitor. This positive control was considered 100% binding. The signal produced by the receptor that had been previously treated with an inhibitor (recorded as O.D.), was divided by the signal produced by the positive control and multiplied by 100 to calculate the % receptor bound to the well in the presence of the inhibitor. The reciprocal of this number is the % inhibition.
(§5) An ELISA assay was employed that uses recombinant fusion proteins composed of extracellular portions of the human selectins joined to human immunoglobulin heavy chain CH3, CH2, and hinge regions. See, for example, Walz et al., Science (1990) 250:1132; Aruffo et al., Cell (1991) 67:35; Aruffo et al., Proc. Natl. Acad. Sci. USA (1992) 89:2292. The assay is well known in the art, and generally consists of the following three steps:
(§6) II. Preparation of "multivalent" receptor of the Selectin-IgG chimera was carried out by combining the respective chimera 1 μg/ml) with biotin labelled goat F(ab')2 anti-human IgG (Fc specific) and streptavidin-alkaline phosphatase diluted 1:1000 in 1% BSA-PBS (1 mM calcium) and incubating at 37° C. for 15 min. This allowed the soluble multivalent receptor complex to form.
(§7) III. Potential inhibitors such as compounds of formula I or II were allowed to react with the soluble receptor at 37° C. for 45 min. This test assumes that optimal binding, between the soluble phase receptor complex and the inhibitor (non natural ligand), would have occurred within this time frame. This solution was then placed in the microtiter wells that were prepared in step I. The plate was incubated at 37° C. for 45 minutes to allow the soluble receptor to bind to its natural ligand. In the presence of a strong inhibitor only a few receptors should be free to bind to the microtiter plate coated with the natural ligand.
(§8) The positive control is the signal produced by the soluble receptor when it is allowed to react with 2,3 sLe^x glycolipid in the microtiter wells in the absence of any inhibitor. This was considered 100% binding. […]

For a further assay, the system named is L-selectin. Kind of assay: ELISA: inhibition of L-selectin-IgG chimera binding to 2,3 sLe^x glycolipid. As to conditions: for IC50: inhibition of binding to 2,3 sLex glycolipid; for inhibition of L-selectin binding to 2,3 sLe^x glycolipid: FIG. 5 and FIG. 6, result in words.
Excerpt: as §1, §2, §3, §4, §5, §6, §7, §8
Background: In an ELISA, binding on a coated surface is turned into a signal by an enzyme label.

Another assay deals with P-selectin. The assay is described as follows: ELISA: inhibition of P-selectin-IgG chimera binding to 2,3 sLe^x glycolipid. Conditions: inhibition of binding to 2,3 sLex glycolipid.
Excerpt: as §1, §2, §3, §4, §5, §6, §7, §8

By IC50 is commonly meant the concentration that gives 50% inhibition. For `C[C@@H]1O[C@@H](CCc2ccc(C(=O)NC(Cc3ccccc3)C(=O)O)cc2)[C@@H](O)[C@H](O)[C@@H]1O` (stereo partly drawn) [Compound 75, 1-Deoxy-1-α-(p-Carboxy-Phenylethyl)-L-Fucose-Phenylalanine Amide], the figures for the IC50 in the assay with E-selectin, with L-selectin and in the assay with P-selectin were greater than 4 mM, greater than 4 mM and 4 mM, respectively.
As to `C[C@@H]1O[C@@H](CCOc2cc3c(OCC[C@@H]4O[C@@H](C)[C@@H](O)[C@@H](O)[C@@H]4O)cccc3cc2C(=O)O)[C@@H](O)[C@H](O)[C@@H]1O` [Compound 58, 3,5-Di-(1-Deoxy-1-α-Fucosyl-Ethyleneoxy)-2-Naphthoic Acid], the IC50 in the assay with E-selectin is greater than 4 mM; in the assay on L-selectin it was roughly 4 mM; with P-selectin, 2 mM.
Taken in the same sequence, the figures for `C[C@@H]1O[C@@H](CCc2ccccc2C(=O)NC(Cc2ccccc2)C(=O)O)[C@@H](O)[C@H](O)[C@@H]1O` (stereo partly drawn) [Compound 76, 1-Deoxy-1-α-(o-Carboxy-Phenylethyl)-L-Fucose-Phenylalanine Amide] were greater than 4 mM, greater than 4 mM and greater than 4 mM.
Consider `CC(=O)N[C@H]1[C@H]([C@H](O)[C@H](O)CO)OC(OCCCCCCOC2O[C@@H](C)[C@@H](O)[C@@H](O)[C@@H]2O)(C(=O)O)C[C@@H]1O` (stereo partly drawn) [Compound 14, O-Hexamethylene linked α,β-NeuNAc and α,β-L-Fucopyranose], for which the “inhibition of E-selectin binding to 2,3 sLe^x glycolipid” value with E-selectin (FIG. 4, result in words) is “inhibit E-selectin binding to 2,3 sLe^x glycolipid”. In addition, the “inhibition of L-selectin binding to 2,3 sLe^x glycolipid” value with L-selectin is on record as “inhibit L-selectin binding in a concentration dependent manner”.
As to `C[C@@H]1O[C@@H](CCOc2ccc(C(=O)O)cc2)[C@@H](O)[C@H](O)[C@@H]1O` [Compound 67, 1-Deoxy-1-α-(p-Carboxy-Phenoxyethyl)-L-Fucose], the IC50 with E-selectin was less than 0.5 mM; with L-selectin it was greater than 2 mM; with P-selectin, less than 0.5 mM.
Turning to `CC(C(=O)OCC1CO1)c1ccc2cc(OCC(O)CO)ccc2c1` (stereo not drawn) [Compound 64], the 50% inhibitory concentration (IC50) with E-selectin, in the assay with L-selectin and in the assay with P-selectin was greater than 4 mM in each case.
For `C[C@@H]1O[C@@H](CCOc2ccc3cc(OCC[C@@H]4O[C@@H](C)[C@@H](O)[C@@H](O)[C@@H]4O)c(C(=O)O)cc3c2)[C@@H](O)[C@H](O)[C@@H]1O` [Compound 57, 3,7-Di-(1-Deoxy-1-α-Fucosyl-Ethyleneoxy)-2-Naphthoic Acid], the results for the IC50 in the assay with E-selectin, with L-selectin and with P-selectin were greater than 4 mM, roughly 2 mM and less than 0.5 mM, respectively.
Take `CC(=O)N[C@H]1[C@H]([C@H](O)[C@H](O)CO)OC(OCCCCCCOC2O[C@@H](C)[C@@H](O)[C@@H](O)[C@@H]2O)(C(=O)O)C[C@@H]1O` (stereo partly drawn) [Compound 15, O-Hexamethylene linked α,β-NeuNAc and α,β-L-Fucopyranose]: in the assay on L-selectin, the “inhibition of L-selectin binding to 2,3 sLe^x glycolipid” value is “blocks L-selectin binding at concentrations lower than 7 and 14”.
In the case of `CC(=O)NC1C(O)CC(OC2C(O)C(CO)OC(OCCOC3OC(C)C(O)C(O)C3O)C2O)(C(=O)O)OC1C(O)C(O)CO` [Compound 28, [O-(α-L-fucopyranosyl)-ethyl]3-O-(α-Neu5Ac)-β-D-galactopyranoside], in the assay on E-selectin, the IC50 was greater than 4 mM.
For `C[C@@H]1O[C@@H](CCc2cccc(C(=O)NC(Cc3ccccc3)C(=O)O)c2)[C@@H](O)[C@H](O)[C@@H]1O` (stereo partly drawn) [Compound 74, 1-Deoxy-1-α-(m-Carboxy-Phenylethyl)-L-Fucose-Phenylalanine Amide], the IC50 in the assay with E-selectin, with L-selectin and with P-selectin was greater than 4 mM each time.
On to `CCCOCC(CO[C@@H]1O[C@H](CO)[C@H](O)[C@H](OC(C)C(=O)O)[C@H]1O)O[C@@H]1O[C@@H](C)[C@@H](O)[C@@H](O)[C@@H]1O` (stereo partly drawn) [Compound 32, 1-O-(3-O-α-carboxyethyl-β-D-galactopyranosyl)-2-O-(α-L-fucopyranosyl)-3-O-(n-propyl)-propane], for which the IC50 in the assay on E-selectin was 2 mM; with L-selectin, no more than 4 mM.

The values above are taken from patent US5658880A, “Sialic acid/fucose based medicaments” (Glycomed Incorporated, priority 1994, dated 1997).
